Test results as given in patent publication US20240368191A1, “HETEROCYCLIC COMPOUNDS AND USES THEREOF” (Kumquat Biosciences Inc., priority 2021, published 2024).

Biological target: T1, KRAS G12D 1-169 (His-tagged, GDP-loaded) (Homo sapiens, UniProt P01116, G12D)
T1 construct: His -tagged GDP-loaded G12D 1-169; made in house; host or cells: E. coli, e.g. BL21 (DE3)
Assay: Covalent modification of KRAS protein by intact-protein LC-MS
Format: binding
Details: comparable or same conditions as K-Ras G12S
Protocol: Test compounds are prepared as 10 mM stock solutions in DMSO (Fisher cat #BP231-100). KRAS protein (His -tagged GDP-loaded wildtype 1-169, His -tagged GDP-loaded G12S 1-169 or His -tagged GDP-loaded G12D 1-169) is diluted to ˜2 μM in appropriate buffer (e.g., a Hepes buffer at physiological conditions). For testing KRAS modification, compounds are diluted to 50× final test concentration in DMSO in 96-well storage plates. 2 μl of the diluted 50× compounds are added to appropriate wells in the PCR plate (Fisher cat #AB-0800). ˜49 μl of the stock protein solution is added to each well of the 96-well PCR plate. Reactions are mixed carefully. The plate is sealed well with aluminum plate seal, and stored in drawer at room temperature for 24 hrs. 5 μl of 2% formic acid (Fisher cat #A117-50) in MilliQ H2O is then added to each well followed by mixing with a pipette. The plate is then resealed with aluminum seal and stored until mass spectrometry analysis.
The extent of covalent modification of KRAS proteins was determined by liquid chromatography electrospray mass spectrometry analysis of the intact proteins on a Thermo Q-Exactive Plus mass spectrometer. 20 μl of sample was injected onto a bioZen 3.6 μm Intact C4 column (Phenomenex cat #00B-4767-AN) placed in a column oven set to 40° C. and separated using a suitable LC gradient from ˜20% to ˜60% solvent B. Solvent A was 0.1% formic acid and solvent B was 0.1% formic acid in acetonitrile. HESI source settings were set to 40, 5 and 1 for the sheath, auxiliary and sweep gas flow, respectively. The spray voltage was 4 kV, and the capillary temperature was 320° C. S-lens RF level was 50 and auxiliary gas heater temperature was set to 200° C. The mass spectrometry was acquired using a scan range from 650 to 1750 m/z using positive polarity at a mass resolution of 70,000, AGC target of 1e6 ions and maximum injection time of 250 ms. The recorded protein mass spectrum was deconvoluted from the raw data file using Protein Deconvolution v4.0 (Thermo). The protein mass and adduct masses were exported with their peak intensities. The peak intensities for the unmodified and modified protein were used to calculate the percent covalent modification of the KRAS protein based on the following equation: % KRAS protein modification=((KRAS−compound)/(KRAS)+(KRAS−Compound))*100.

T1 sequence (P01116 1-169 isoform P01116-2 G12D): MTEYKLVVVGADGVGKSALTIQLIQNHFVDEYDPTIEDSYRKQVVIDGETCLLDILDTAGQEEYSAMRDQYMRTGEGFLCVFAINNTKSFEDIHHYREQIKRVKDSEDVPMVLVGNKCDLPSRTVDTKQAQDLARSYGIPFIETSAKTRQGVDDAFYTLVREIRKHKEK

SMILES: N#Cc1c(N)sc2c(F)ccc(-c3c(Cl)cc4c(OC5CCCCN(C(=O)n6cncn6)C5)nc(OC[C@@]56CCCN5C[C@H](F)C6)nc4c3F)c12 (stereo partly drawn) [Compound A169, 4-(4-((1-(1H-1,2,4-triazole-1-carbonyl)azepan-3-yl)oxy)-6-chloro-8-fluoro-2-(((2R,7aS)-2-fluorotetrahydro-1H-pyrrolizin-7a(5H)-yl)methoxy)quinazolin-7-yl)-2-amino-7-fluorobenzo-[b]thiophene-3-carbonitrile]
- covalent labeling of K-Ras G12D: essentially no detectable labeling

SMILES: Nc1nc2c(-c3c(Cl)cc4c(N5CCC56CCCN(C(=O)n5cncn5)CC6)nc(OC[C@@]56CCCN5C[C@H](F)C6)nc4c3F)ccc(F)c2s1 (stereo partly drawn) [Compound A209, (1-(7-(2-amino-7-fluorobenzo-[d]thiazol-4-yl)-6-chloro-8-fluoro-2-(((2R,7aS)-2-fluoro-tetrahydro-1H-pyrrolizin-7a(5H)-yl)methoxy)quinazolin-4-yl)-1,7-diazaspiro[3.6]decan-7-yl)(1H-1,2,4-triazol-1-yl)-methanone]
- covalent labeling of K-Ras G12D: essentially no detectable labeling

SMILES: N#Cc1c(N)sc2c(F)ccc(-c3c(Cl)cc4c(OC5CCCCN(C(=O)n6cncn6)C5)nc(OC[C@@]56CCCN5C[C@H](F)C6)nc4c3F)c12 (stereo partly drawn) [Compound A258, 4-(4-((1-(1H-1,2,4-triazole-1-carbonyl)azepan-3-yl)oxy)-6-chloro-8-fluoro-2-(((2R,7aS)-2-fluorotetrahydro-1H-pyrrolizin-7a(5H)-yl)methoxy)quinazolin-7-yl)-2-amino-7-fluorobenzo-[b]thiophene-3-carbonitrile]
- covalent labeling of K-Ras G12D: essentially no detectable labeling

SMILES: N#Cc1c(N)sc2c(F)ccc(-c3c(Cl)cc4c(N5CCCC6(CCN(C(=O)n7cncn7)C6)C5)nc(OC[C@@]56CCCN5C[C@H](F)C6)nc4c3F)c12 (stereo partly drawn) [Compound A269, 4-(4-(2-(1H-1,2,4-triazole-1-carbonyl)-2,7-diazaspiro[4.5]-decan-7-yl)-6-chloro-8-fluoro-2-(((2R,7aS)-2-fluorotetrahydro-1H-pyrrolizin-7a(5H)-yl)meth-oxy)quinazolin-7-yl)-2-amino-7-fluorobenzo[b]thiophene-3-carbonitrile]
- covalent labeling of K-Ras G12D: essentially no detectable labeling

SMILES: Cc1ncn(C(=O)N2CCCC(Oc3nc(OC[C@@]45CCCN4C[C@H](F)C5)nc4c(F)c(-c5ccc(F)c6sc(N)c(C#N)c56)c(Cl)cc34)C2)n1 (stereo partly drawn) [Compound A302, 2-amino-4-(6-chloro-8-fluoro-2-(((2R,7aS)-2-fluorotetrahydro-1H-pyrrolizin-7a(5H)-yl)meth-oxy)-4-((1-(3-methyl-1H-1,2,4-triazole-1-carbonyl)piperidin-3-yl)oxy)quinazolin-7-yl)-7-fluorobenzo[b]thiophene-3-carbonitrile]
- covalent labeling of K-Ras G12D: essentially no detectable labeling

SMILES: Nc1nc2c(-c3c(Cl)cc4c(N5CCC56CCCN(C(=O)n5cncn5)C6)nc(OCC56CCCN5CC(F)C6)nc4c3F)ccc(F)c2s1 (stereo not drawn) [Compound A197, (1-(7-(2-amino-7-fluorobenzo-[d]thiazol-4-yl)-6-chloro-8-fluoro-2-((2-fluorotetrahydro-1H-pyrrolizin-7a(5H)-yl)meth-oxy)quinazolin-4-yl)-1,6-diazaspiro[3.5]nonan-6-yl)(1H-1,2,4-triazol-1-yl)methanone]
- covalent labeling of K-Ras G12D: essentially no detectable labeling

SMILES: Nc1nc2c(-c3c(Cl)cc4c(N5CCCC6(CN(C(=O)n7cncn7)CCO6)C5)nc(OC[C@@]56CCCN5C[C@H](F)C6)nc4c3F)ccc(F)c2s1 (stereo partly drawn) [Compound A125, (8-(7-(2-amino-7-fluorobenzo-[d]thiazol-4-yl)-6-chloro-8-fluoro-2-(((2R,7aS)-2-fluoro-tetrahydro-1H-pyrrolizin-7a(5H)-yl)methoxy)quinazolin-4-yl)-1-oxa-4,8-diazaspiro[5.5]-undecan-4-yl)(1H-1,2,4-triazol-1-yl)methanone]
- covalent labeling of K-Ras G12D: essentially no detectable labeling

SMILES: N#Cc1c(N)sc2c(F)ccc(-c3c(Cl)cc4c(N5CC6(CCCCN(C(=O)n7cncn7)C6)C5)nc(OC[C@@]56CCCN5C[C@H](F)C6)nc4c3F)c12 [Compound A285, 4-(4-(6-(1H-1,2,4-triazole-1-carbonyl)-2,6-diazaspiro[3.6]-decan-2-yl)-6-chloro-8-fluoro-2-(((2R,7aS)-2-fluorotetra-hydro-1H-pyrrolizin-7a(5H)-yl)methoxy)quinazolin-7-yl)-2-amino-7-fluorobenzo[b]thio-phene-3-carbonitrile]
- covalent labeling of K-Ras G12D: essentially no detectable labeling

SMILES: COCCN1CCC(Oc2nc(N3CCCCC4(CN(C(=O)n5cncn5)C4)C3)c3cc(Cl)c(-c4ccc(F)c5sc(N)c(C#N)c45)c(F)c3n2)CC1 [Compound A119, 4-(4-(2-(1H-1,2,4-triazole-1-carbonyl)-2,6-diazaspiro[3.6]-decan-6-yl)-6-chloro-8-fluoro-2-((1-(2-methoxyethyl)piperi-din-4-yl)oxy)quinazolin-7-yl)-2-amino-7-fluorobenzo[b]-thiophene-3-carbonitrile]
- covalent labeling of K-Ras G12D: essentially no detectable labeling

SMILES: Nc1nc2c(-c3c(Cl)cc4c(N5CC6(CCCN(C(=O)n7cncn7)C6)C5)nc(OC[C@@]56CCCN5C[C@H](F)C6)nc4c3F)ccc(F)c2s1 [Compound A230, (2-(7-(2-amino-7-fluorobenzo-[d]thiazol-4-yl)-6-chloro-8-fluoro-2-(((2R,7aS)-2-fluoro-tetrahydro-1H-pyrrolizin-7a(5H)-yl)methoxy)quinazolin-4-yl)-2,6-diazaspiro[3.5]nonan-6-yl)(1H-1,2,4-triazol-1-yl)-methanone]
- covalent labeling of K-Ras G12D: essentially no detectable labeling

SMILES: N#Cc1c(N)sc2c(F)ccc(-c3ncc4c(N5CCCC6(CN(C(=O)n7cncn7)C6)C5)nc(OC[C@@]56CCCN5C[C@H](F)C6)nc4c3F)c12 [Compound A134, 4-(4-(2-(1H-1,2,4-triazole-1-carbonyl)-2,6-diazaspiro[3.5]-nonan-6-yl)-8-fluoro-2-(((2R,7aS)-2-fluorotetrahydro-1H-pyrrolizin-7a(5H)-yl)meth-oxy)pyrido[4,3-d]pyrimidin-7-yl)-2-amino-7-fluorobenzo[b]-thiophene-3-carbonitrile]
- covalent labeling of K-Ras G12D: essentially no detectable labeling

SMILES: C#Cc1c(F)ccc2cc(O)cc(-c3ncc4c(N5CCOCC6(CN(C(=O)n7cnc(C)n7)C6)C5)nc(OC[C@@]56CCCN5C[C@H](F)C6)nc4c3F)c12 [Compound A298, (9-(7-(8-ethynyl-7-fluoro-3-hydroxynaphthalen-1-yl)-8-fluoro-2-(((2R,7aS)-2-fluoro-tetrahydro-1H-pyrrolizin-7a(5H)-yl)methoxy)pyrido[4,3-d]pyrimidin-4-yl)-6-oxa-2,9-diazaspiro[3.6]decan-2-yl)(3-methyl-1H-1,2,4-triazol-1-yl)-methanone]
- covalent labeling of K-Ras G12D: essentially no detectable labeling

SMILES: N#Cc1c(N)sc2c(F)ccc(-c3ncc4c(N5CCOC6(CN(C(=O)n7cncn7)C6)C5)nc(OC[C@@]56CCCN5C[C@H](F)C6)nc4c3F)c12 [Compound A161, 4-(4-(2-(1H-1,2,4-triazole-1-carbonyl)-5-oxa-2,8-diaza-spiro[3.5]nonan-8-yl)-8-fluoro-2-(((2R,7aS)-2-fluorotetrahydro-1H-pyrrolizin-7a(5H)-yl)meth-oxy)pyrido[4,3-d]pyrimidin-7-yl)-2-amino-7-fluorobenzo[b]-thiophene-3-carbonitrile]
- covalent labeling of K-Ras G12D: essentially no detectable labeling

SMILES: C[C@H](Oc1nc(N2CCOC3(CN(C(=O)n4cncn4)C3)C2)c2cc(Cl)c(-c3ccc(F)c4sc(N)c(C#N)c34)c(F)c2n1)[C@@H]1CCCN1C [Compound A275, 4-(4-(2-(1H-1,2,4-triazole-1-carbonyl)-5-oxa-2,8-diazaspiro-[3.5]nonan-8-yl)-6-chloro-8-fluoro-2-((S)-1-((S)-1-methyl-pyrrolidin-2-yl)ethoxy)quin-azolin-7-yl)-2-amino-7-fluoro-benzo[b]thiophene-3-carbonitrile]
- covalent labeling of K-Ras G12D: essentially no detectable labeling

SMILES: Nc1nc2c(-c3c(Cl)cc4c(N5CC6(CCN(C(=O)n7cncn7)C6)C5)nc(OC[C@@]56CCCN5C[C@H](F)C6)nc4c3F)ccc(F)c2s1 [Compound A279, (2-(7-(2-amino-7-fluorobenzo-[d]thiazol-4-yl)-6-chloro-8-fluoro-2-(((2R,7aS)-2-fluoro-tetrahydro-1H-pyrrolizin-7a(5H)-yl)methoxy)quinazolin-4-yl)-2,6-diazaspiro[3.4]octan-6-yl)(1H-1,2,4-triazol-1-yl)-methanone]
- covalent labeling of K-Ras G12D: essentially no detectable labeling
